From paper PMC6409689, “Characteristics of the First Protein Tyrosine Phosphatase with Phytase Activity from a Soil Metagenome” (Genes, 2019)

How the values were obtained:
Pho16B = Pho16B (uncultured organism, UniProt A0A3G1QTG4); assay: phosphate release, ammonium molybdate assay at […] nm; Michaelis-Menten fit; details: pH 5.6, 45 °C; printed kcat, Km and kcat/Km do not agree
[1] = tested on: O=[N+]([O-])c1ccc(OP(=O)(O)O)cc1; assay: purified protein; details: pH 5.6, 45 °C, printed kcat, Km and kcat/Km do not agree

Pho16B, sequence (A0A3G1QTG4 1-376): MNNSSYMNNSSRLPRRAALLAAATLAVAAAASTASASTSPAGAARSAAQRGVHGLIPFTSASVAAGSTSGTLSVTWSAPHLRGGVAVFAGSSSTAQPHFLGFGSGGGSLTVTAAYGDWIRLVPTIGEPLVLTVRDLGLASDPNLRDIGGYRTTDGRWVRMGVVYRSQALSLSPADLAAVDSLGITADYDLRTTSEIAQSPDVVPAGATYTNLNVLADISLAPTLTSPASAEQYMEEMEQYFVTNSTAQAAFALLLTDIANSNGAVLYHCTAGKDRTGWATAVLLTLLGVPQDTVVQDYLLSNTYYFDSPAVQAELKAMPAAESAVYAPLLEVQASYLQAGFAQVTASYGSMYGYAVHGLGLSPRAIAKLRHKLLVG

Substance	Km (Pho16B) [µM]	Km [1] [µM]
Naphthyl phosphate	966 ± 180	
Pho16B (uncultured organism)		1026 ± 140
